Patent US20140128747A1, “ASSESSING E[…] USING A BLOOD PRESSURE CUFF” (THE REGENTS OF THE UNIVERSITY OF CALIFORNIA, priority 2011, published 2014)
Entries after “also recorded” stand apart in the source; their conditions may differ.

Legend:
NO synthase = experiment: Cuff single pulse waveform after endothelial stimulation with NO synthase blocked; type: in vivo, human; conditions: cuff inflated to 70 mmHg, FIG. 3
From the text: Both the amplitude and slope of the rising edge of the pulse increase markedly after endothelial stimulation.
In an artery with intact endothelial function, both pulse height (maximal cross-sectional arterial area) and compliance (maximum slope of the rising edge) increase markedly over baseline. […] FIG. 4 illustrates how a five minute cuff occlusion and the ensuring reactive hyperemia lead to major increases in area change per pulse and the maximum derivative of the area per pulse. Both metrics return to baseline levels after 20 minutes. FIG. 5 confirms the repeatability of the protocol by illustrating the effects of a series of two cuff occlusion periods. We see from FIG. 6 that only a small slow drift in the measured quantities occurs when no reactive hyperemic stimulus is applied.
A stimulus is then applied to the subject. Any of a number of stimuli expected to alter endothelial function are contemplated. Such stimuli include, for example, occlusion of blood flow, and/or application of one or more drugs to the subject. Illustrative drugs include, for example, drugs that act as NO agonists (e.g. acetylcholine), β2-adrenergic agonists such as albuterol, acoustic/mechanical tissue vibration, transcutaneous low frequency ultrasound (see, e.g., Iida et al. (2006) J. Amer. Coll. Cardiol., 48(3): 532-537), and the like. […]

human subjects = experiment: Blood pressure cuff measurement of pulse amplitude (arterial area) and compliance response to sublingual nitroglycerin; type: in vivo; conditions: 0.4 mg sublingual NG, FIG. 10, all cases where NG was administered
From the text: We contend that such studies are unnecessary in order to make a determination that a method is effective in assessing endothelial function. Physical methods for arterial EF evaluation typically measure changes in the material properties of the artery. […] A major advantage of this method is that response to NG is intact even in individuals with endothelial dysfunction, so there is no need to perform a correlation analysis between two measurements.
We examined three individuals in the age-range 28-38. All subjects had Framingham risk scores of 1% or less, and had no history of cardiovascular disease. Each individual was assessed at least three times before and after RH induced by five minutes of suprasystolic cuff occlusion. […] Sensitivity to a 0.4 mg dose of sublingual NG was assessed three times in two individuals.
Sensitivity to a 0.4 mg dose of sublingual NG was assessed three times in two individuals.
We studied a single quantity relating to the recorded pressure data: the pulse amplitude, which we posit is proportional to the arterial area. During the post stimulus interval, pressure data from the cuff were recorded approximately every 80 seconds, for a period of 30 seconds. During each recording interval, the cuff was inflated to 70 mmHg, which was always below the measured diastolic pressure of the subject. […]

| SMILES | effect on increase of pulse amplitude (height) and slope of rising edge after endothelial stimulation (NO synthase) | increase in relative change in area (human subjects) | increase in relative change in compliance (human subjects) |
| --- | --- | --- | --- |
| COC(=O)[C@@H](N)CCCNC(=N)N[N+](=O)[O-] [L-NAME] | greatly attenuates this response; also recorded: greatly attenuated |  |  |
| O=[N+]([O-])OCC(CO[N+](=O)[O-])O[N+](=O)[O-] [NG, nitroglycerin] |  | more than 30% | more than 30% |
